Results from patent publication US12060409B2, “Short cyclic peptides for the treatment of Graves' disease” (priority 2018, dated 2024).
Peptide text beside a SMILES is read from it.

Assays:
[1] = tested on: immunologically naïve mice; assay: Studies in immunologically naive mice: 6 monthly IV administrations; type: in vivo, BALB/c mice; conditions: 1 mg/kg bw IV, 6 monthly administrations
Procedure: BALB/c mice were adapted for at least one week to start experiments at the age of 12 weeks. Animals were kept as described before. This study was approved by the local animal welfare authority and Ethics committee at the Regierung von Oberbayern (Government of Upper Bavaria) in Munich, Germany (no. 55.2-1-54-2532.0-32-15), and carried out in accordance to the European Commission guidelines.
Peptides (1 mg/kg body weight) or NaCl vehicle control were given by IV injection into a tail vein of these naïve mice (n=6 per group), and then continued at 4-weekly intervals for 6 months, as described before for the therapeutic study in immunized mice. Serum samples were taken at identical intervals.

[2] = tested on: TSHR-immunized diseased mice; conditions: previous study (8); cited from earlier work

| Compound | Tolerability / clinical findings [1] | Improvement of disease parameters [2] |
| --- | --- | --- |
| CC(C)C[C@@H]1NC(=O)[C@H](Cc2ccc(O)cc2)NC(=O)[C@H](C(C)C)NC(=O)[C@H](C)NC(=O)[C@H](CC(=O)O)NC(=O)[C@H](CC(C)C)NC(=O)[C@H](CCCCN)NC(=O)[C@H]([C@@H](C)O)NC(=O)CNC(=O)[C@H](CCCCN)NC(=O)[C@H](CC(N)=O)NC(=O)[C@H](CCCCN)NC(=O)[C@H](CC(N)=O)NC1=O [peptide 836 13mer, TKLDAVYLNKNKG] (HELM PEPTIDE1{A.V.Y.L.N.K.N.K.G.T.K.L.D}$PEPTIDE1,PEPTIDE1,1:R1-13:R2$$$V2.0) | no pathological clinical findings were observed |  |
| CC(C)[C@@H]1NC(=O)[C@H](CCCNC(=N)N)NC(=O)[C@H](Cc2ccccc2)NC(=O)[C@H](CC(=O)O)NC(=O)[C@H](CCC(=O)O)NC(=O)[C@H](CCC(=O)O)NC(=O)[C@H](CCC(N)=O)NC(=O)[C@H](Cc2c[nH]cn2)NC(=O)[C@@H](N)CSSC[C@@H](C(=O)O)NC(=O)[C@H]([C@@H](C)O)NC1=O [peptide 19, CHQEEDFRVTC] (HELM PEPTIDE1{C.H.Q.E.E.D.F.R.V.T.C}$PEPTIDE1,PEPTIDE1,1:R3-11:R3$$$V2.0) | no pathological clinical findings were observed |  |
| SPPCECHQEEDFRVTCKDIQRIPS (cyclic; Amino acid sequence derived from human thyrotropin-TSH receptor (TSHR)) [peptide 829] |  | small, non-significant trends to improve disease parameters |
